Source: patent US12312599B2, “Methods, compositions, and kits for producing beige adipocytes and treating metabolic disorders” (MaineHealth, priority 2018, dated 2025)

Test: Activity of Y-27632 stock solutions
Format: physicochemical
Conditions: water based versus DMSO stock
Procedure: Note: Only use Y-27632 stock solutions that have been resuspended in DMSO. […] Conduct Mesoderm induction of iPSC in a laminar flow cabinet. • 3. Expand cells in NutriStem hPSC XF Medium overnight and change 100% of the medium without Y-27632 every 24 hours in a laminar flow cabinet for cell culture. When changing media, tilt plate up and allow media to pool at the bottom of wells. Aspirate the pooled medium without touching the surface of the plate. Replace with medium warmed to room temperature by pipetting 2 ml down the side of the wells. Cell Passaging • 1. Expand cell colonies until they have reached 70-80% confluence in high-density areas of the wells. High-density accumulation can occur along the edges of the well as well as the middle. Cells permitted to reach high density will lose their potential for differentiation after multiple passages. • 2. Prior to cell passage, warm cell wash buffer and NutriStem hPSC XF Medium to room temperature. Conduct cell passage in a laminar flow cabinet. • 3. Aspirate NutriStem hPSC XF Medium from wells with vacuum aspirator and wash with PBS without calcium or magnesium. Remove PBS and add 1 ml of ReLeSR reagent to side of well. Agitate plate to allow ReLeSR reagent to spread evenly on the surface. • 4. Aspirate ReLeSR reagent with vacuum aspirator after 30 seconds, which will leave behind a thin film of liquid. […]

SMILES: C[C@@H](N)[C@H]1CC[C@H](C(=O)Nc2ccncc2)CC1 [Y-27632]
- inhibitor activity of water based stock solutions: lose significant inhibitor activity
